{
  "source": "patent US12059429B2",
  "about": "“Hornerin: a novel non-VEGF mediated angiogenic protein expressed in both human and mouse angiogenic endothelial cells and human pancreatic cancer cells” (University of Virginia Patent Foundation, priority 2018, dated 2024)",
  "format_in_all_cases": "in vivo, mouse",
  "key": {"[1]": {"system": "L3.6pl xenografts", "assay": "Flow cytometry/FACS of tumor cell populations", "procedure": "Day 10 tumors were injected with either Scr siRNA or Hrnr siRNA and excised 20 hours later. The tumors were immediately washed in PBS (+Mg/+Ca), minced with scalpels, treated with Collagenase Type II (Worthington Biochemical Corporation, Lakewood, NJ, USA; (2.0 mg/mL) serum-free DMEM, 100 minutes at 37° C.), and filtered through a 40 μm cell strainer. The cell suspension (filtrate) was incubated with the following antibody/dye panel for FACS; anti-CD45 AF488 (1:100; Biolegend, San Diego, CA, USA, 103121, clone 30-F11), anti-CD31 AF647 (1:100; Biolegend, 102415, clone 390), LIVE/DEAD violet stain (1:200; Thermo Fisher). Flow cytometry analysis was completed on the Cyan ADP LX (Beckman Coulter). Compensation and data analysis was completed using FlowJo software (Ashland, OR, USA). FACS was completed in the UVA flow cytometry core on the Influx cell sorter (BD Biosciences, Franklin Lakes, NJ, USA)."}, "[2]": {"system": "L3.6pl PDAC cells", "assay": "Subcutaneous L3.6pl PDAC xenograft tumor volume", "procedure": "A tumor sample size of four was determined by power analysis based on prior tumor xenograft studies. For our 80% power analysis, the difference between means was 200 mm^3, standard deviation was 100 mm^3, and P-value<0.05 (P<0.05). Tumors were measured at least twice weekly until their volume was >1000 mm^3, at which point animals were euthanized. Tumor size data were collected from each tumor, with the exception of one tumor in the combination treatment experiment that was identified with 90% confidence via Grubb's Outlier Test. The following number of mice in each treatment cohort was evaluated for tumor outgrowth: (Scr siRNA/ctrl., N=15; Hrnr siRNA/ctrl., N=14; Scr siRNA/AV-951, N=8; Hrnr siRNA/AV-951, N=8).\nFor tumor implantation, L3.6pl cells were grown under normal culture conditions for 72 hours prior to being trypsinized and enumerated. The cells were suspended in aliquots of 500,000 cells/50 μL Hanks Balanced Salt Solution (HBSS; Corning, Manassas, VA, USA) and 50 μL of Matrigel (BD Biosciences, San Jose, CA, USA) was added to each aliquot of cells prior to implantation. The cell-Matrigel slurry was injected subcutaneously into nu/nu mice on the flanks or orthotopically into the pancreas (Seaman et al., 2011). The injection site for subcutaneous tumors was monitored daily for growth and tumor volume was calculated form caliper measurements using the formula (width^2×length)/2.\nThe VEGFR inhibitor AV-951 (Selleck Chemicals, Houston, TX, USA) was suspended in 0.5% methocel+0.5% Tween-20 in HBSS to increase viscosity and 50 μL of 1.0 mg/kg AV-951 or VC solution was administered once daily by oral gavage (22-gauge gavage needle (Kent Scientific, Torrington, CT, USA) connected to a 1 mL syringe). […] To prepare Hrnr siRNA and Silencer Select Negative Control #1 Scr siRNA (Invitrogen; catalog number 4390844) for injection, 10 μg of hornerin or control siRNA were combined with in vivo-jetPEI transfection reagent (Polyplus, France) in solution with 5% glucose per Polyplus instructions (total volume 50 μL). After a 30 minutes incubation, the siRNA solutions were injected slowly into the center of the tumor. A second independent hornerin knockdown experiment was conducted using a pooled set of three unique mouse Hrnr siRNA duplexes (5′-[…]-3′ (SEQ ID NO: 50); 5 ‘-[…]-3’ (SEQ ID NO: 51); 5 ‘-[…]-3’ (SEQ ID NO: 52)) and Scr siRNA (Origene, Rockville, MD, USA). The reagent preparation and injection protocol were similar to that described above."}, "[3]": {"system": "hornerin", "assay": "Immunofluorescent microscopy of hornerin protein in tumor sections", "details": "vs Scr siRNA", "procedure": "Tumor sections were deparaffinized, rehydrated, heated in antigen retrieval solution (Vector), blocked for 30 minutes in blocking buffer, and incubated with anti-CD34 antibody (Abcam, ab8158, clone MEC14.7; 1:100) in blocking buffer overnight at 4° C. The sections were then incubated with goat anti-rat FITC secondary antibody (Abcam, ab6840; 1:100) in blocking buffer prior to mounting with Prolong Gold Antifade reagent (Invitrogen). Anti-actin, α-smooth muscle Cy3 antibody (Sigma, C6198, clone 1A4; 1:200) was added to the primary antibody solution if assaying for alpha-smooth muscle actin. […] Images were collected using a Nikon TE 2000-E2 microscope (Nikon Instruments) equipped with a Melles Griot Argon Laser System (Melles Griot, Carlsbad, CA, USA) and a Nikon D-Eclipse C1 confocal attachment and analyzed by Measurement Tool in Image J. To measure the relative hornerin expression in tumor vessels, three vessel segments per image were isolated and their mean intensity and area were measured and recorded. A weighted mean intensity was calculated to correct for differences in selected area. To measure the relative hornerin expression in tumor tissue, the mean intensity from three square sections (75×75 pixel) of tumor tissue per image was measured and recorded."}, "[4]": {"system": "L3.6pl tumors", "assay": "Ki67 and cleaved caspase 3 immunofluorescence in tumor sections", "details": "day 15 tumor sections", "procedure": "Vessel parameters were measured using RAVE software (Seaman et al., 2011). For detection of proliferation and apoptosis, the sections were incubated with the primary antibodies anti-Ki67 (Abcam, ab15580; 1:200) or anti-cleaved caspase 3 (Cell Signaling, 9661; 1:200), respectively, overnight at 4° C. followed by incubation with anti-rabbit AF594 (Abcam, 150080; 1:200)."}},
  "data": [
    {"substance": "5′-GCAUGGAUCUUGUUGCGGUTT-3′ [Hrnr siRNA]", "values": [
      {"measurement": "proportion of leukocytes (CD45+/CD31- cells)", "setting": "[1]; FACS of tumor cell suspensions", "value": "not altered"},
      {"measurement": "proportion of endothelial cells (CD31+/CD45-)", "setting": "[1]; FACS, vs Scr siRNA", "value": "not different"},
      {"measurement": "tumors smaller compared to Scr siRNA-injected tumors", "setting": "[2]; intratumoral injection every other day from day 7, volume at day 13 post implantation", "value": 2.5, "unit": "fold"},
      {"measurement": "reduction in tumor volume (discussion summary)", "setting": "[2]; monotherapy or combined therapies", "value": "two-fold"},
      {"measurement": "decrease in hornerin expression in endothelial cells", "setting": "[3]; CD34+ tumor vessels", "value": 30, "unit": "%"},
      {"measurement": "hornerin expression in epithelial cells from tumors", "setting": "[3]", "value": "no difference"},
      {"measurement": "cleaved caspase 3 levels in tumors relative to control", "setting": "[4]", "value": "two-fold increase"}
    ]}
  ]
}
